“Also recorded” adds a separate entry of the source. Structures can show the parent of a compound that is named as a salt.
How the values were obtained:
Long Evans rats [1] = assay: auditory fear conditioning after chronic immobilization stress or handling; type: in vivo, rat; details: FIG. 4F
Experimental: (§1) Some rats received systemic or intra-BLA delivery of ibutamoren mesylate (IBU). For systemic drug delivery, rats were injected with 1 ml kg^−1 intraperitoneal injection (i.p.) of either vehicle or drug. […] A concentration of 0.5 mg ml^−1, diluted in saline, was used. For experiments using intra-BLA drug delivery, ibutamoren mesylate was solubilized in artificial cerebrospinal fluid (pH=7.4) to a concentration of 0.5 μg μl^−1.
(§2) On the fear conditioning day, rats were exposed to four tone-shock pairings with a 60 second ITI (460 seconds total time). For context extinction, rats were returned to the conditioning context for 12 minutes total. For tone extinction, rats were exposed to twelve tones (10 seconds, 85 dB) for 960 seconds total. Conditioning, context and tone extinction sessions were separated by 24 hours.
Infrared cameras (frame rate: 30 Hz) and VideoFreeze software (MedAssociates; St Albans, Vt.) were used to record behavior during all training and testing sessions. Motor activity was measured using the “motion index”, a number generated by the VideoFreeze software, which corresponds roughly to the change in grayscale values across the image pixels; a higher motion index indicates greater movement. Freezing was measured by computing the number of observations below a threshold motion index and converting this number to a percentage of all observations for the period of interest. The threshold defined the value of the motion index below which only motor activity related to breathing was observed. […]
To determine whether the decrease in ghrelin binding sites in the BLA of chronically stressed rats exerts a functional impact, rats received either chronic immobilization stress or handling for two weeks followed by auditory fear conditioning (FIG. 4E). IBU, at the dose shown to reduce fear memory strength in unstressed rats (FIGS. 3A-D), or VEH was injected immediately after conditioning and long-term auditory fear memory was assessed two days later. […]

Long Evans rats [2] = assay: auditory Pavlovian fear conditioning and extinction testing, unstressed rats; type: in vivo, rat
Experimental: All experiments used adult, male Long Evans rats (300-350 g, Charles River, Raleigh, N.C. or 250-275 g, Taconic, Germantown, N.Y.), individually housed (68-72° F.; 12-h light/dark cycle, 0700 h lights on). Control animals were housed in separate cubicles from stressed animals. Water and food was given ad libitum. All procedures were approved by the Institutional Animal Care and Use Committee of the Massachusetts Institute of Technology and the Animal Care and Use Review Office of the US Army Medical Research and Materiel Command and in accordance with the US National Institutes of Health (NIH) Guide for the Care and Use of Laboratory Animals.
as §1
Some rats received bilateral implants of stainless steel cannulae aimed at the BLA. Rats were anesthetized with a cocktail of 10 mg kg^−1 acepromazine, 100 mg kg^−1 xylazine, and 100 mg kg^−1 ketamine (1 ml kg^−1; i.p.) and placed in a dual arm stereotaxic frame (Kopf Instruments; Tujunga, Calif.). The rats were then implanted with 23 gauge guide cannulae 1 mm above LA using the following coordinates, relative to bregma and brain surface: A/P −2.0, M/L+/−5.3, D/V −5.4. Three jeweler screws were also implanted in the skull, and dental acrylic was used to secure the implant. Dummy cannulae extending 1 mm past the tip of the guide cannulae were placed into the guide cannula after surgery and changed every other day. Rats received 0.03 mg kg^−1 of Buprenex (1 ml kg^−1; subcutaneous injection (s.c.)) for post-operative pain management. All rats recovered for a minimum of 5 days.
A subset of rats were subjected to auditory Pavlovian fear conditioning and extinction testing. All rats were transported in their home cages from the vivarium to a holding room in which no behavioral testing was conducted. This transport occurred at least one hour prior to the onset of any behavioral testing.
For catheterized rats, each rat was placed in a fear conditioning box (MedAssociates; St. Albans, Vt.) scented with Pine-Sol (1%) for 250 sec total. The rats had 3 minutes to explore the novel environment before tone (10 seconds, 85 dB)-shock (2 seconds, 0.35 mA; coterminating with the tone) pairings [20 second intertrial intervals (ITIs)] were administered. Long-term context and tone fear memory was assessed the following day. For context extinction, the rats were returned to the fear conditioning context for a total of 10 minutes. Four hours later, tone extinction was administered by placing the rats in the fear conditioning boxes with an altered context. White Plexiglas inserts were used to obscure the back and side walls and cover the grid floor. Room and box lights were turned off, a red light provided illumination (15 W), and acetic acid (1%) was used to scent the boxes. Two minutes were allowed for exploration before a continuous tone (8 minutes, 87 dB) was presented. For rats with BLA cannula implants, all conditioning and testing was as described, except context and tone extinction were separated by 24 hours.
as §2
Infrared cameras (frame rate: 30 Hz) and VideoFreeze software (MedAssociates; St Albans, Vt.) were used to record behavior during all training and testing sessions. […]

Long Evans rats [3] = assay: food consumption assay and body weight after IBU; type: in vivo, rat
Experimental: as §1
For some rats, food consumption was monitored. After fear conditioning as described above, each rat was returned to its home cage in a holding room. Each rat had 200 g of chow placed in the food hopper. Food was quickly weighed and returned 30 minutes, 1 hour, 2 hours, and 3 hours after fear conditioning ended. Three days after fear recall testing (five days after fear conditioning), food consumption was measured during the same time points within the day, but while the rats were undisturbed in their home cages in the vivarium.
To assess fear memory strength, conditional freezing was expressed as the percentage of time spent freezing, a probability estimate amenable to analysis with parametric statistics. These estimates of freezing, as well as hormone levels and data related to food consumption and body weight, were analyzed using ANOVA. Post hoc Fisher's PLSD tests were performed after a significant omnibus F-ratio.

[4] = in vivo; cited from earlier work
[5] = intra-BLA infusion (0.5 μg/μl) prior to fear conditioning, FIG. 3B
[6] = systemic (i.p., 0.5 mg/ml) prior to fear conditioning, vs vehicle, FIG. 3A
[7] = systemic, 0.5 mg/mL, following fear conditioning, FIG. 7A

## CC(C)(N)C(=O)N[C@H](COCc1ccccc1)C(=O)N1CCC2(CC1)CN(S(C)(=O)=O)c1ccccc12 [IBU, ibutamoren mesylate]
Long Evans rats [1]; rats exposed to chronic immobilization stress (14 days), systemic IBU
  long-term auditory fear memory (conditional freezing): no effect and not
Long Evans rats [1]; stressed and unstressed rats, IBU or VEH
  freezing during fear conditioning (group differences): No group differences
Long Evans rats [1]; unstressed (handled) rats, systemic IBU
  long-term auditory fear memory: reduced; also recorded: significantly impaired
Long Evans rats [2]; [5]
  fear acquisition: without any effect; also recorded: without affecting
  long-term auditory fear memory: strongly inhibited; also recorded: significantly impaired
  long-term contextual memory: strongly inhibited; also recorded: significantly impaired
Long Evans rats [2]; [6]
  fear acquisition: without impacting; also recorded: without affecting
  long-term contextual memory: without impacting; also recorded: without affecting
Long Evans rats [2]; systemic (i.p., 1 ml/kg of 0.5 mg/ml) 30 minutes prior to fear conditioning, vs vehicle, FIG. 3A
  long-term auditory fear memory: significantly lower levels; also recorded: significantly impaired
Long Evans rats [2]; [7]
  fear acquisition: without any effect; also recorded: without affecting
  long-term auditory fear memory: strongly inhibited; also recorded: significantly impaired
  long-term contextual fear memory: strongly inhibited; also recorded: significantly impaired
Long Evans rats [3]; intra-BLA infusion, FIG. 3D
  body weight measured 24 hours after injection: does not change
Long Evans rats [3]; systemic, 0.5 mg/mL, IBU vs vehicle group, FIG. 3C right panel
  body weight: did not differ
Long Evans rats [3]; systemic, 0.5 mg/mL, relative to body weight, FIG. 3C left panel
  food consumption shortly following injection: does not impact
Long Evans rats [3]; systemic, 0.5 mg/mL, relative to body weight, FIG. 3C middle panel
  food consumption cumulatively, over the 24 hours following injection: does not impact
Long Evans rats [3]; systemic, 10 mg/mL (twenty times the dose), FIG. 7B left panel
  food consumption shortly following injection: does not impact
Long Evans rats [3]; systemic, 10 mg/mL (twenty times the dose), FIG. 7B middle panel
  food consumption cumulatively, over the 24 h following injection: does not impact
[4]
  crossing of the blood-brain barrier: readily crosses
  half-life: > 6 h

— patent US10317418B2, “Use of ghrelin or functional ghrelin receptor agonists to prevent and treat stress-sensitive psychiatric illness” (Massachusetts Institute of Technology, priority 2015, dated 2019)
